Data from patent US20260263550A1, “METHODS AND COMPOSITIONS FOR TREATING, PREVENTING, INHIBITING, AMELIORATING OR DELAYING THE ONSET OF OPHTHALMIC CONDITIONS” (Stealth BioTherapeutics Inc., priority 2021, published 2026).
Where “and” joins values, the source holds several entries; their conditions need not be identical. Equal entries are not always repeated.

Columns and labels:
[1] = 28-day SC study safety endpoints (clinical observations, ophthalmology); assay type: in vivo, cynomolgus monkey
Method: Male and female cynomolgus monkeys were divided into four groups (Groups 1 to 4). Groups 1 and 4 consisted of five males and five females each and Groups 2 and 3 consisted of three males and three females each. Animals were dosed via SC injection once daily for 28 consecutive days. Group 1 animals received the control article, 0.9% sodium chloride injection, USP (saline). Group 2, 3, and 4 animals received the test article, compound of Formula IIa, at dose levels of 2, 5, and 15 mg/kg/day, respectively. Three males and three females from Groups 1 to 3, and three males and one female from Group 4 were necropsied on Day 29 (terminal necropsy). Two males and two females from Groups 1 and 4 were necropsied on Day 42 (recovery necropsy), after a 13-day treatment-free period. […] At termination, gross observations and organ weights were recorded, and eye/optic nerve tissue samples were collected for microscopic evaluation and biodistribution assays. […]
Body weight. Body weights were measured twice during acclimation (including Day −1), then weekly during the in-life phase (Days 7, 14, 21, 28, 35, and 41) and on the day of corresponding necropsy (Day 29 or Day 42). […]

[2] = Uptake in the retina after 10-day SC dosing, LC-MS/MS; assay type: in vivo, cynomolgus monkey; conditions: male cynomolgus monkeys 1001-1003, SC 5 mg/kg/day for 10 days, left eye, approximately 24 hours after the last dose
Method: Administration of Compound of Formula IIa. The test agent (compound of formula IIa) was administered daily via subcutaneous injection into the scapular and mid-dorsal areas for 10 days. The first day of dosing was designated as Day 1. Dose formulations were allowed to warm up at ambient temperature for at least 30 minutes prior to dosing, as appropriate. The animals were temporarily restrained for dose administration and were not sedated. The volume for each dose was administered over 1 (preferred) or 2 (as necessary) separated injections within the designated area. If a designated injection site was not available for a given animal on any day, the next available test site in the rotation was used. The injection area was marked as frequently as required to allow appropriate visualization of administration sites. On the last injection occasion for each quadrant, the last site of injection was circled, and the circled site was collected for necropsy.
Tissue collection, preservation, and analysis. Eye tissue (retina) was collected approximately 24 hours after the last dose on Day 10. […]
Tissue samples were prepared and analyzed by methods similar to those described above in Example 3. In brief, concentrations of test article (compound of Formula IIa) in the retina (ng/g tissue) was determined by LC-MS/MS using Formula IIb as a standard.

[3] = system: iPSC-derived RPE cells from AMD donors; assay: Microarray analysis of gene expression on in vitro Bruch's membrane model; assay type: cell-based, human; conditions: AMD-derived RPE on nitrite-modified ECM, 10, 100, 1000 nM, 24 hours
Method: General. iPSC-derived RPE were generated from AMD patients (2 atrophic; 1 exudative) and patients with no history of AMD (n=3). To test the therapeutic efficacy of elamipretide and compound of Formula IIa, cell viability was analyzed on nitrite-modified extracellular matrix (ECM), a typical modification of aged Bruch's membrane, for 24 hrs. DNA microarrays were used to elucidate gene expression in AMD-derived RPE cultured on nitrite-modified ECM.
Microarray analysis. iPSC-derived RPE cells from AMD donors (n=3; 2 atrophic with GA, 1 exudative) were treated with drug (elamipretide or compound of Formula IIa) as described below and cultured on an in vitro Bruch's membrane model for 24 hours.
• AMD donors only (n=3 individual donors) • Cells treated with elamipretide (also referred to as “309” in the figures) at 10 nM, 100 nM and 1000 nM • Cells treated with compound of Formula IIa (also referred to as “146c” in the figures) at 10 nM, 100 nM, 1000 nM
Microarray studies using Affymetrix GeneChip Human Clariom™ S Assay were performed as described in Gong et al. (2020).

With `Cc1cc(O)cc(C)c1C[C@H](NC(=O)[C@H](N)CCCNC(=N)N)C(=O)N[C@@H](CCCCN)c1nc(Cc2ccccc2)no1.Cl.Cl.Cl` [Formula IIa, (R)-2-amino-N—((S)-1-(((S)-5-amino-1-(3-benzyl-1,2,4-oxadiazol-5-yl)pentyl)amino)-3-(4-hydroxy-2,6-dimethylphenyl)-1-oxopropan-2-yl)-5-guanidinopentanamide] the tolerability of dosing ([1]; SC 15 mg/kg/day (Group 4), two females necropsied early on Days 25 and 27) was “not well tolerated”, the ophthalmology examination findings ([1]; SC 2, 5, 15 mg/kg/day, Day 24 (Week 4)) was “no compound of Formula IIa-related findings” and the “Concentration in Retina at Day 11 (individual subjects)” value [2] was 382 ng/g and 336 ng/g and 126 ng/g. The “expression of complement regulatory genes including CFHR2” value ([3]; FIG. 8S) was “increase expression”, the “expression of complement component genes (C1R, C3, C4A) increased by nitration of ECM” value ([3]; FIGS. 8L-8P) was “reverse this trend” and the “expression of mitochondrial-related genes, such as CYP24A1 and GLS” value ([3]; FIGS. 8W-8Z) was “altered the expression”.
